Test results from ChEMBL document CHEMBL1136732, “Discovery of 5-[5-fluoro-2-oxo-1,2- dihydroindol-(3Z)-ylidenemethyl]-2,4- dimethyl-1H-pyrrole-3-carboxylic acid (2-diethylaminoethyl)amide, a novel tyrosine kinase inhibitor targeting vascular endothelial and platelet-derived growth factor receptor tyrosine kinase” (J Med Chem, 2003).
In brackets after ≈: the same amount, converted by molar mass.

What was measured:
[1] = target: Fibroblast growth factor receptor 1 (Homo sapiens, UniProt P11362)
[2] = Solubility in 20 mM buffered solution after shaking for 24 hr at 22 degree celsius at pH 2; assay type: physicochemical
[3] = target: Epidermal growth factor receptor (Homo sapiens, UniProt P00533)
Chain of Epidermal growth factor receptor (P00533 whole entry): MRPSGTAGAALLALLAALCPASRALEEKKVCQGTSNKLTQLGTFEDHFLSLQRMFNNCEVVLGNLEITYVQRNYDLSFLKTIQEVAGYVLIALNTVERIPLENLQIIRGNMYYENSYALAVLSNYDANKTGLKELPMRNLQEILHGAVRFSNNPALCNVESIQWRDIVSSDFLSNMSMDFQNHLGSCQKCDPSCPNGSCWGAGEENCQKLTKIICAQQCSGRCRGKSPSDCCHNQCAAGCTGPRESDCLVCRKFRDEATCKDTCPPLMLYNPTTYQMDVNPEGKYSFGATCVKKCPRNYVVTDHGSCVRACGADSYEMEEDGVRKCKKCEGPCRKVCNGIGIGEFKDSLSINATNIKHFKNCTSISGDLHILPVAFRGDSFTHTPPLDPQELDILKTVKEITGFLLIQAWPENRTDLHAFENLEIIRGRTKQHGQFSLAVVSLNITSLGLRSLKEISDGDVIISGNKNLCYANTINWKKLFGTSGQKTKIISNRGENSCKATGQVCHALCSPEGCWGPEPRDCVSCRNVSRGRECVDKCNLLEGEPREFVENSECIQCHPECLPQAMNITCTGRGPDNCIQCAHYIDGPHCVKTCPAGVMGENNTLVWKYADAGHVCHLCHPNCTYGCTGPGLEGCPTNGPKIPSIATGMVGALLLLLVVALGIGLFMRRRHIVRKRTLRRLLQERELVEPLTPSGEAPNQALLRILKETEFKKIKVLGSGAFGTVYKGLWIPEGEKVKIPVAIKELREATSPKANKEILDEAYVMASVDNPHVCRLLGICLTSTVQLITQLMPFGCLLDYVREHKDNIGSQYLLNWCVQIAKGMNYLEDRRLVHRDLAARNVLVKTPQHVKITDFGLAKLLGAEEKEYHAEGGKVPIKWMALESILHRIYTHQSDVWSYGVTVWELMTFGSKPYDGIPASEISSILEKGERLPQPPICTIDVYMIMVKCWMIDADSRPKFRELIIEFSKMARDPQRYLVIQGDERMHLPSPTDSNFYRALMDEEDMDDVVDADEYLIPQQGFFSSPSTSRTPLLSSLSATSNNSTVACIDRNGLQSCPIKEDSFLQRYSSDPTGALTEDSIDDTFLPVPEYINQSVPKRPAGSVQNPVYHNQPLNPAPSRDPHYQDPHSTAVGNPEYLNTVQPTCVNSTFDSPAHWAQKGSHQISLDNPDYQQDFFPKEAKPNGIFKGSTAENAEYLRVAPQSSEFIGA

[4] = Solubility in 20 mM buffered solution after shaking for 24 hr at 22 degree celsius at pH 6; assay type: physicochemical
[5] = In vitro cytotoxicity was determined; conditions: read-out: LD50 (the source's name)
[6] = target: Platelet-derived growth factor receptor beta (Homo sapiens, UniProt P09619)
Chain of Platelet-derived growth factor receptor beta (P09619 whole entry): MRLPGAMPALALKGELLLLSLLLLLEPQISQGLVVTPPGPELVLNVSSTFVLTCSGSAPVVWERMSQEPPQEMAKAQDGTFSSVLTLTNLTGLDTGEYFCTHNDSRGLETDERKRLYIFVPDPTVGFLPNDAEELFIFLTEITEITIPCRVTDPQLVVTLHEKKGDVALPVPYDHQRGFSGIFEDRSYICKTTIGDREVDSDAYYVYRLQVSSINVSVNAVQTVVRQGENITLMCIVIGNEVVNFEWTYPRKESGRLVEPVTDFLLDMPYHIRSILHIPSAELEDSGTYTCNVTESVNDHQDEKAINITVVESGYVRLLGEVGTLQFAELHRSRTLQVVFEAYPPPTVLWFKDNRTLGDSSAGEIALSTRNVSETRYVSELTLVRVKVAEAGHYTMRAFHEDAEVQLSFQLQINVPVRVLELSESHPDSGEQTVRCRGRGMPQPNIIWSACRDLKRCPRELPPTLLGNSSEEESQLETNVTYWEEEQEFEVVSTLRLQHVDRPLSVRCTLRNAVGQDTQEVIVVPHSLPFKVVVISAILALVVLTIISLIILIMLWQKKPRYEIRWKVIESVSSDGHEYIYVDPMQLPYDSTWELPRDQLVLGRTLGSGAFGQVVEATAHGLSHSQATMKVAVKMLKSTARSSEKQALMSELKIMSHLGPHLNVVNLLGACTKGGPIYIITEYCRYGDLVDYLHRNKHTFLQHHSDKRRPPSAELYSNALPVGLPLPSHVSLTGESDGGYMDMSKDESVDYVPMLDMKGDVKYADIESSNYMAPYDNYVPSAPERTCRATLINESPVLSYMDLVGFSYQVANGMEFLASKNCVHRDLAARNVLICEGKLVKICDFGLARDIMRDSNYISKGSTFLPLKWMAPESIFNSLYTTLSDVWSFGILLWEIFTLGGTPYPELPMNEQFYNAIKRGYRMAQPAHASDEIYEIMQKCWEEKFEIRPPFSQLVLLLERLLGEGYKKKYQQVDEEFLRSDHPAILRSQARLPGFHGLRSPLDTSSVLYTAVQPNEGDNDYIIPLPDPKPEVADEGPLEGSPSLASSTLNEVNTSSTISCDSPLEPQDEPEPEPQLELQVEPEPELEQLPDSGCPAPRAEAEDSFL

[7] = target: Vascular endothelial growth factor receptor 2 (Homo sapiens, UniProt P35968)
Chain of Vascular endothelial growth factor receptor 2 (P35968 whole entry): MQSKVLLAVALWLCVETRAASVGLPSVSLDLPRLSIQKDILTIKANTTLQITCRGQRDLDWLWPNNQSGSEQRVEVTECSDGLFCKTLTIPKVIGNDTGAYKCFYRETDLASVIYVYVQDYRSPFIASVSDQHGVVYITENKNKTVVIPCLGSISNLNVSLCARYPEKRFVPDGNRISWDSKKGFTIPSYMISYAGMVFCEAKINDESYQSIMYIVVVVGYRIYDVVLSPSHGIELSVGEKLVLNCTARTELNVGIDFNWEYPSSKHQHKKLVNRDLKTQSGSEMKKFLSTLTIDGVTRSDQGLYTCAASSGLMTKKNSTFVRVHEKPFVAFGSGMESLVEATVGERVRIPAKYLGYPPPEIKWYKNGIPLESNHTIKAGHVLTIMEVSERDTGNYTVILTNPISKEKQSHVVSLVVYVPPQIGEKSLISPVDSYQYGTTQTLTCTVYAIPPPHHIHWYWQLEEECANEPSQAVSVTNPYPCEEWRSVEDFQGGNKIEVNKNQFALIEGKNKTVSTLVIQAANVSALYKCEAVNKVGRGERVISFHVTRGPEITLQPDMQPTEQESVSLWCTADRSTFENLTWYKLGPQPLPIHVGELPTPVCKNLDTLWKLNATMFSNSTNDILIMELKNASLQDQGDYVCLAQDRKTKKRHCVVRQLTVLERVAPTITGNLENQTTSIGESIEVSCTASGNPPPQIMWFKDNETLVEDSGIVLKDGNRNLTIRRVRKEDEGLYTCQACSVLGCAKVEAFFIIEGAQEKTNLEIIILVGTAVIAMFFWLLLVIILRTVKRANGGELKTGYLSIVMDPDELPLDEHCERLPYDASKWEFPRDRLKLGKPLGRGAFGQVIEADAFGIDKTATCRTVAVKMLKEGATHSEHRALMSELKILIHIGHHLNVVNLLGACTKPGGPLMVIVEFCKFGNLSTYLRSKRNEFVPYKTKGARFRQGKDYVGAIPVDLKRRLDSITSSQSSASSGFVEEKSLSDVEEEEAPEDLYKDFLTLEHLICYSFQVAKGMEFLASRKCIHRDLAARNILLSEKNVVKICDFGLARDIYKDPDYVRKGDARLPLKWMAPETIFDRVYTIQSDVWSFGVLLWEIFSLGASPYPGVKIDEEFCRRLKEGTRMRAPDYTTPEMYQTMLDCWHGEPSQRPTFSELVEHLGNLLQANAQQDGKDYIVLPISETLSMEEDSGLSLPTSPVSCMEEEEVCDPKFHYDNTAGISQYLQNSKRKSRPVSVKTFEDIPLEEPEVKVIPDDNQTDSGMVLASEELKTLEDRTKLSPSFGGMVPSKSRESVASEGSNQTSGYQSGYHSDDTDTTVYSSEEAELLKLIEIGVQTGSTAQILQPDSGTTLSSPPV

Chain of Fibroblast growth factor receptor 1 (P11362 whole entry): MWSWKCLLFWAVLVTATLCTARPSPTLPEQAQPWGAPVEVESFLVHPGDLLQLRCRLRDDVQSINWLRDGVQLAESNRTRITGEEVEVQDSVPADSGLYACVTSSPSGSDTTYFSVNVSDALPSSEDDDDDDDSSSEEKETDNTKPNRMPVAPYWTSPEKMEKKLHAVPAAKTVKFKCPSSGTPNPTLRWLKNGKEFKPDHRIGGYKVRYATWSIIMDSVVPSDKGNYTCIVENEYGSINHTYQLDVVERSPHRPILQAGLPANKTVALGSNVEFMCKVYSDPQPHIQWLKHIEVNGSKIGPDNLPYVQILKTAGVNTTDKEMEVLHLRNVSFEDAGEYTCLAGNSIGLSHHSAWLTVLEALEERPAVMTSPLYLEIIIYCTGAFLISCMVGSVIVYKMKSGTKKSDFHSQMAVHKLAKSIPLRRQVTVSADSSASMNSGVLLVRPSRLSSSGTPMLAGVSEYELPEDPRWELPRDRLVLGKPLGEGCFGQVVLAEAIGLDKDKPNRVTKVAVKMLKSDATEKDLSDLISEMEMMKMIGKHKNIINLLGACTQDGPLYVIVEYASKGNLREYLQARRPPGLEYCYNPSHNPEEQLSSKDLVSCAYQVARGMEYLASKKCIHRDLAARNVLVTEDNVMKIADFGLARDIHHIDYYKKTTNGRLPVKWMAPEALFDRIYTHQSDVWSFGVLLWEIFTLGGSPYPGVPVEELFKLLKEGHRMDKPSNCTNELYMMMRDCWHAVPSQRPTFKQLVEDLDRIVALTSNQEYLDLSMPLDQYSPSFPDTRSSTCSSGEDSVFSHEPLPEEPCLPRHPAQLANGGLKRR

SMILES	IC50 [1]	solubility thermodynamic at 24 h [2]	IC50 [3]	solubility thermodynamic at 24 h [4]	CC50 [5]	IC50 [6]	IC50 [7]
Cc1[nH]c(/C=C2\C(=O)Nc3ccc(F)cc32)c(C)c1C(=O)NCCN1CCOCC1	2600 nM	2940 µg/mL (≈ 7140 µM)	> 20 µM	0.3 µg/mL (≈ 0.727 µM)	> 50 µM	2 nM	90 nM
CCN(CC)CCNC(=O)c1c(C)[nH]c(/C=C2\C(=O)Nc3ccc(Br)cc32)c1C		1300 µg/mL (≈ 2830 µM)	10 µM	101 µg/mL (≈ 220 µM)	16.3 µM	5 nM	32 nM
Cc1[nH]c(/C=C2\C(=O)Nc3ccc(F)cc32)c(C)c1C(=O)NCCN(C)C	1600 nM	3010 µg/mL (≈ 8130 µM)	> 20 µM	75 µg/mL (≈ 202 µM)	48.5 µM	0.5 nM	80 nM
Cc1[nH]c(/C=C2\C(=O)Nc3ccc(F)cc32)c(C)c1C(=O)NCC1CCN(C)CC1	200 nM	> 250 µg/mL		> 250 µg/mL	38 µM	3 nM	25 nM
Cc1[nH]c(/C=C2\C(=O)Nc3ccc(F)cc32)c(C)c1C(=O)NCCn1cncn1	17100 nM	2 µg/mL (≈ 5.07 µM)	> 20 µM	6 µg/mL (≈ 15.2 µM)	> 50 µM	10 nM	85 nM
Cc1[nH]c(/C=C2\C(=O)Nc3ccc(F)cc32)c(C)c1C(=O)NCc1ccncc1	3100 nM	486 µg/mL (≈ 1240 µM)	> 20 µM		> 50 µM	1 nM	< 160 nM
CCN(CC)CCNC(=O)c1c(C)[nH]c(/C=C2\C(=O)Nc3ccccc32)c1C	880 nM	3020 µg/mL (≈ 7940 µM)	> 20 µM	511 µg/mL (≈ 1340 µM)	> 50 µM	17 nM	50 nM
Cc1[nH]c(/C=C2\C(=O)Nc3ccccc32)c(C)c1CCCN1CCN(C)CC1	4200 nM		> 20 µM		> 50 µM	60 nM	300 nM
Cc1[nH]c(/C=C2\C(=O)Nc3ccccc32)c(C)c1CCC(=O)O [ORANTINIB]		< 5 µg/mL			> 50 µM		
Cc1cc(C)c(/C=C2\C(=O)Nc3ccccc32)[nH]1 [SEMAXANIB]		< 1 µg/mL		< 1 µg/mL	> 50 µM		
CCN(CC)CCNC(=O)c1c(C)[nH]c(/C=C2\C(=O)Nc3ccc(Cl)cc32)c1C [SU-11652]	170 nM	3260 µg/mL (≈ 7850 µM)	> 20 µM	186 µg/mL (≈ 448 µM)	15.6 µM	3 nM	27 nM
CCN(CC)CCNC(=O)c1c(C)[nH]c(/C=C2\C(=O)Nc3ccc(F)cc32)c1C [SUNITINIB]		2580 µg/mL (≈ 6480 µM)		364 µg/mL (≈ 913 µM)	48.9 µM		
Cc1[nH]c(/C=C2\C(=O)Nc3ccc(F)cc32)c(C)c1C(=O)NCCN1CCCC1 [TOCERANIB]	3900 nM	3320 µg/mL (≈ 8370 µM)	> 20 µM	9 µg/mL (≈ 22.7 µM)	49 µM	1 nM	60 nM
